Data from ChEMBL document CHEMBL4190243, “Natural alkaloids as P-gp inhibitors for multidrug resistance reversal in cancer” (Eur J Med Chem, 2017).

What was measured:
Homo sapiens [1] = organism: Homo sapiens; assay: Inhibition of P-gp in human SW620/AD300 cells assessed as potentiation of taxol-induced cytotoxicity by measuring fold reduction in taxol IC50; format: cell-based
K562/A02 = assay: Inhibition of P-gp in human K562/A02 cells assessed as potentiation of doxorubicin-induced cytotoxicity by measuring fold reduction in doxorubicin IC50; format: cell-based
[2] = biological target: ATP-dependent translocase ABCB1 (Homo sapiens, UniProt P08183); assay: Inhibition of human MDR1 expressed in mouse L5178 cells assessed as accumulation of Rh123 by measuring fluorescence activity ratio preincubated for 10 mins followed by Rh123 addition measured after 20 mins by FACS analysis; format: cell-based
[3] = Inhibition of P-gp in human MCF7/DX1 cells assessed as […] [3H]paclitaxel accumulation after 40 mins by scintillation counting method; format: cell-based
[4] = Inhibition of P-gp in human MCF7/DX1 cells assessed as […] Rh123 accumulation after 30 mins by FACS analysis; format: cell-based; details: MCF7/DX1, 0.5 h
Homo sapiens [5] = organism: Homo sapiens; assay: Inhibition of P-gp in human KBV1 cells assessed as potentiation of paclitaxel-induced cytotoxicity by measuring fold reduction in paclitaxel IC50 at 5 uM; format: cell-based
Homo sapiens [6] = organism: Homo sapiens; assay: Inhibition of P-gp in human KBV1 cells assessed as potentiation of doxorubicin-induced cytotoxicity by measuring fold reduction in doxorubicin IC50 at 5 uM; format: cell-based
Homo sapiens [7] = organism: Homo sapiens; assay: Inhibition of P-gp in human KBV1 cells assessed as potentiation of vinblastine-induced cytotoxicity by measuring fold reduction in vinblastine IC50 at 5 uM; format: cell-based
Homo sapiens [8] = organism: Homo sapiens; assay: Inhibition of P-gp in human CEM/DOX5000 cells assessed as potentiation of doxorubicin-induced cytotoxicity by measuring fold reduction in doxorubicin IC50; format: cell-based
Homo sapiens [9] = organism: Homo sapiens; assay: Inhibition of P-gp in human Caco2 cells assessed as potentiation of doxorubicin-induced cytotoxicity by measuring fold reduction in doxorubicin IC50; format: cell-based
Homo sapiens [10] = organism: Homo sapiens; assay: Inhibition of P-gp in human KBV1 cells assessed as potentiation of vinblastine-induced cytotoxicity by measuring fold reduction in vinblastine IC50 at 50 uM; format: cell-based
MES-SA/Dx5 = assay: Inhibition of P-gp in human MES-SA/Dx5 cells assessed as potentiation of paclitaxel-induced cytotoxicity; format: cell-based
[11] = Inhibition of P-gp in human Caco2 cells assessed as reduction in accumulation of calcein-AM preincubated for 30 mins followed by Rh123 addition measured after 90 mins by fluorescence spectrofluorometric method; format: cell-based; details: Caco-2
[12] = Inhibition of P-gp in human Caco2 cells assessed as reduction in accumulation of Rh123 preincubated for 30 mins followed by Rh123 addition measured after 90 mins by fluorescence spectrofluorometric method; format: cell-based; details: Caco-2
Homo sapiens [13] = organism: Homo sapiens; assay: Inhibition of MRP in human lung cancer cells assessed as potentiation of doxorubicin-induced cytotoxicity by measuring fold reduction in doxorubicin IC50; format: cell-based
Homo sapiens [14] = organism: Homo sapiens; assay: Inhibition of P-gp in human lung cancer cells assessed as potentiation of doxorubicin-induced cytotoxicity by measuring fold reduction in doxorubicin IC50; format: cell-based
Homo sapiens [15] = organism: Homo sapiens; assay: Inhibition of MRP in P-gp null human lung cancer cells assessed as potentiation of doxorubicin-induced cytotoxicity by measuring fold reduction in doxorubicin IC50
Homo sapiens [16] = organism: Homo sapiens; assay: Inhibition of P-gp in human HCT116/VM46 cells assessed as potentiation of vinblastine-induced cytotoxicity by measuring fold reduction in vinblastine IC50; format: cell-based
[17] = Cytotoxicity against human KB1 cells; format: functional; details: read-out: ED50 (the source's name)
Homo sapiens [18] = organism: Homo sapiens; assay: Inhibition of P-gp in human CCRF-CEM/VLB100 cells assessed as potentiation of vincristine-induced cytotoxicity by measuring fold reduction in vincristine IC50
Homo sapiens [19] = organism: Homo sapiens; assay: Inhibition of P-gp in human MCF7/DOX cells assessed as potentiation of doxorubicin-induced cytotoxicity by measuring fold reduction in doxorubicin IC50 at 5 uM; format: cell-based
[20] = biological target: Multidrug resistance-associated protein 1 (Homo sapiens, UniProt P33527); assay: Inhibition of MRP1 in human MCF7/ADR cells assessed as potentiation of mitoxantrone-induced cytotoxicity by measuring fold reduction in mitoxantrone IC50 at 50 uM after 0.5 to 4 hrs by fluorometric method; format: cell-based
Homo sapiens [21] = organism: Homo sapiens; assay: Inhibition of P-gp in human MCF7/ADR cells assessed as potentiation of doxorubicin-induced cytotoxicity by measuring fold reduction in doxorubicin IC50 at 50 uM after 0.5 to 4 hrs by fluorometric method; format: cell-based

ATP-dependent translocase ABCB1, sequence (P08183 whole entry): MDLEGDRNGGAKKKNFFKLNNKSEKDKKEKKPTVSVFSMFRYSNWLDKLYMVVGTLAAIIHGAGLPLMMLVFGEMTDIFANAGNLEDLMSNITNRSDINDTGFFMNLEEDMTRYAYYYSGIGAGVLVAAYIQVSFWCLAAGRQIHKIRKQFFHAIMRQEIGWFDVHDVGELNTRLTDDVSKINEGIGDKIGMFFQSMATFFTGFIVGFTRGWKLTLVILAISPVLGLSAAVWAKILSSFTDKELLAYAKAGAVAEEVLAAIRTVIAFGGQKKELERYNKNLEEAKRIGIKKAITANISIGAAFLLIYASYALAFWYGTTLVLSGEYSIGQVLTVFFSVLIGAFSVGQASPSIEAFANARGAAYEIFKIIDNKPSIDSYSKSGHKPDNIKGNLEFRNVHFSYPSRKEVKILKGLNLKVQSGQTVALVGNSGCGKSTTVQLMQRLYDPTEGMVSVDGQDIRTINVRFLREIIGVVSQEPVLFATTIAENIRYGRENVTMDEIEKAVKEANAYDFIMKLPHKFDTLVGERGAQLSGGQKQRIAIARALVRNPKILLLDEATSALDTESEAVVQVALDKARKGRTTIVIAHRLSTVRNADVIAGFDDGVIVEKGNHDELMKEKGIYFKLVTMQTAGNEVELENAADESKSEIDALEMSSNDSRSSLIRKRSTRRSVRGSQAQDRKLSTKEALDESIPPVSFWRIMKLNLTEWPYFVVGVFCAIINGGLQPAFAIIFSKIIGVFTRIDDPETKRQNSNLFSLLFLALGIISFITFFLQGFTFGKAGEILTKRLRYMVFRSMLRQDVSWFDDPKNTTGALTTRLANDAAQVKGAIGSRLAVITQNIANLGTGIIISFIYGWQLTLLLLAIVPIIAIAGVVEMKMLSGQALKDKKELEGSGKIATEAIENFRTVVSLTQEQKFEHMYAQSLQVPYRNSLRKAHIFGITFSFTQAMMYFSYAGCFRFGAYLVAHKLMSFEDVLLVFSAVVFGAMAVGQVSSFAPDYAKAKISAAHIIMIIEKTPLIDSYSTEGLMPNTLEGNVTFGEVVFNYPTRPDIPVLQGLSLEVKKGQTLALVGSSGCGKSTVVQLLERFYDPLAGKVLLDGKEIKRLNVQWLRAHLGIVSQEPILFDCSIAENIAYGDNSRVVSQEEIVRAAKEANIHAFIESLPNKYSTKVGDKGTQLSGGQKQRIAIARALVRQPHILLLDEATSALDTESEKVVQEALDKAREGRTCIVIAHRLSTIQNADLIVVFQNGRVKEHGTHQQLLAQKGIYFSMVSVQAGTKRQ
Multidrug resistance-associated protein 1, sequence (P33527 whole entry): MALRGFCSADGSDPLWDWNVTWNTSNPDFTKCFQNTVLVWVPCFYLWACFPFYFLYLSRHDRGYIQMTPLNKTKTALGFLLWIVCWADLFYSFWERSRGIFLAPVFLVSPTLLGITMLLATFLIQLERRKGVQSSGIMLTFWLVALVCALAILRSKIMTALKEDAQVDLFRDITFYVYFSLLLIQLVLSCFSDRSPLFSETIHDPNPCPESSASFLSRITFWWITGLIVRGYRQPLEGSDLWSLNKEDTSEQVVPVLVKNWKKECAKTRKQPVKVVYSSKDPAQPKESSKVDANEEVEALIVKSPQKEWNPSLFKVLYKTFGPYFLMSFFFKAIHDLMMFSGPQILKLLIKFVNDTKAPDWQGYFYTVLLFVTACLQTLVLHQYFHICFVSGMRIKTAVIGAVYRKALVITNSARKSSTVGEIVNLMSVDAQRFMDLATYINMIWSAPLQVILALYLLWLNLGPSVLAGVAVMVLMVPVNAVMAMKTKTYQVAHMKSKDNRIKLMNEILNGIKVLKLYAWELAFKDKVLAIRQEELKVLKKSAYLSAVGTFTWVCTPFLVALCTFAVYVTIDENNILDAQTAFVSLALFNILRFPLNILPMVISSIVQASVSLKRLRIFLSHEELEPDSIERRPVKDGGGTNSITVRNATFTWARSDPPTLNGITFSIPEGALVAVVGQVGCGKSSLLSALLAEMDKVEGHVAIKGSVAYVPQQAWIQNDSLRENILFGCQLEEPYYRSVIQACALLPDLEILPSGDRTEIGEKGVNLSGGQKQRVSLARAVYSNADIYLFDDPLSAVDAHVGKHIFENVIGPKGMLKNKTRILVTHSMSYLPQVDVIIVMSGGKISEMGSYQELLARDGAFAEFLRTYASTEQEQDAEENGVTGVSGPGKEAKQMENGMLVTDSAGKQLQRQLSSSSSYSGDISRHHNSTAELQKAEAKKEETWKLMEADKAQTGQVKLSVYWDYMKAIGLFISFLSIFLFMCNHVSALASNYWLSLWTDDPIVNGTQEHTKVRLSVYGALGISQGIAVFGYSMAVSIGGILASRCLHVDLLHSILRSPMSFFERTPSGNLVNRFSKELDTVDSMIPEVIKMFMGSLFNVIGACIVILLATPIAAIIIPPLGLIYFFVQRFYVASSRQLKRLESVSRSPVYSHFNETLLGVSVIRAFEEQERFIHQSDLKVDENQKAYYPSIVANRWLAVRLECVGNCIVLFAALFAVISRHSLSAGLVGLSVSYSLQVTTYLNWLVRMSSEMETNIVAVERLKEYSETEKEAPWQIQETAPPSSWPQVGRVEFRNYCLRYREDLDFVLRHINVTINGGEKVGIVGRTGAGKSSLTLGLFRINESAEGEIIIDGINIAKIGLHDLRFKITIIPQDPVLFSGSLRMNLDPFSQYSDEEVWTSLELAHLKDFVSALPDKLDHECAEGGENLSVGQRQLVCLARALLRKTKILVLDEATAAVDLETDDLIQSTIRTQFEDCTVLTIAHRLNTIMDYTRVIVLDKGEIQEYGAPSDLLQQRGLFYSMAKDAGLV

C=C/C=C\[C@H](C)[C@H](OC(N)=O)[C@@H](C)[C@H](O)[C@@H](C)C/C(C)=C\[C@H](C)[C@@H](O)[C@@H](C)/C=C\[C@@H](O)C[C@@H]1OC(=O)[C@H](C)[C@@H](O)[C@H]1C
fold change (FC) (Homo sapiens [1]): 4

CCCCCCCCC(CC(=O)CCCCCCC(=O)O)n1cnc2c(N)ncnc21 (configuration not stated)
fold change (FC) (K562/A02): 1.5 to 2.7

Cn1c2ccccc2c(=O)c2c(O)cc3c(c21)CC(C(C)(O)CO)O3 (configuration not stated) [GRAVACRIDONDIOL]
Ratio [2]: 1.72

C=C[C@H]1CN2CC[C@H]1C[C@@H]2[C@@H](OC(=O)CCCCCCCC(=O)O[C@@H](c1ccnc2ccc(OC)cc12)[C@H]1C[C@@H]2CCN1C[C@@H]2C=C)c1ccnc2ccc(OC)cc12
IC50 [3]: 2000 nM
IC50 [4]: 1700 nM

CCCC[C@@]12[C@@H]3C[C@H]4[C@H]5[C@H](C)/C(=C6/OC(=O)C(C)=C6OC)O[C@]5(O3)[C@@H]1CCN42
fold change (FC) (Homo sapiens [5]): 7
fold change (FC) (Homo sapiens [6]): 4 to 5
fold change (FC) (Homo sapiens [7]): 5

CN1[C@@H](CC(=O)c2ccccc2)CCC[C@H]1CC(O)c1ccccc1 (some centres not stated)
fold change (FC) (Homo sapiens [8]): 2.5 to 3
fold change (FC) (Homo sapiens [9]): 3.5

CC[C@@H](O)[C@H]1CC[C@H]2O[C@H]3CCN1[C@@H]2[C@@H]1C3O/C(=C2\OC(=O)C(C)=C2OC)[C@H]1C (some centres not stated)
fold change (FC) (Homo sapiens [10]): 2

COc1ccc2c(c1)C(=O)c1c(OC)c(OC)c(OC)c3ccnc-2c13
ED50 (MES-SA/Dx5): 0.03 µg/mL

CN1Cc2c(ccc3c2OCO3)C2C(O)Cc3cc4c(cc3C21)OCO4 (stereo not drawn) [CHELIDONINE (+)]
IC50 [11]: 11000 nM
fold change (FC) (Homo sapiens [8]): 3
IC50 [12]: 9000 nM
fold change (FC) (Homo sapiens [9]): 6

C=CC(C)(C)[C@@]12C[C@H]3c4nc5ccccc5c(=O)n4CC(=O)N3[C@@H]1N(C(C)=O)c1ccccc12
fold change (FC) (Homo sapiens [13]): 66
fold change (FC) (Homo sapiens [14]): 200
fold change (FC) (Homo sapiens [15]): 15

COc1ccc(/C=C/NC(=O)c2c(-c3cc(OC)c(OC)c(OC)c3)c(-c3cc(OC)c(OC)c(OC)c3)c(C(=O)N/C=C/c3ccc(OC)cc3)n2CCc2ccc(OC)cc2)cc1
fold change (FC) (Homo sapiens [16]): 66

CC(/C=C/C=C\C=C\C=C(/C)C(=O)N[C@@H](C)CO)=C\[C@@H](C)[C@@H](O)/C(C)=C/[C@@H](C)CCc1ccccc1
EC50 [17]: 0.03 nM

CCCCC(CC(C)=O)n1cnc2c(N)ncnc21 (configuration not stated)
fold change (FC) (K562/A02): 1.5 to 2.7

CCCCCC(CC(C)=O)n1cnc2c(N)ncnc21 (configuration not stated)
fold change (FC) (K562/A02): 1.5 to 2.7

C=CC(C)(C)[C@@]12C[C@H]3c4nc5ccccc5c(=O)n4[C@H](C)C(=O)N3[C@@H]1N(C(C)=O)c1ccccc12
fold change (FC) (Homo sapiens [18]): 700

COc1cc2c(cc1OC)-c1c(OC)c(OC)cc3c1[C@H](C2)N(C)CC3 [GLAUCINE]
fold change (FC) (Homo sapiens [19]): 7
fold change (FC) [20]: 22
fold change (FC) (Homo sapiens [21]): 7
